Four compounds from US9259401B2 (priority 2011, dated 2016) can be followed below.

The test system of one assay is Male Laca mice. Put plainly: Porsolt Forced Swim test (behavioural despair test). The class given is in vivo. On the procedure:
Method: Porsolt Forced Swim test (also called behavioural despair test)
Animals are subjected to two trials during which they are force to swim in an acrylic glass cylinder filled with water and from which they cannot escape. The first trial lasts 15 minutes. Then, after 24-hours, a second trial is performed which lasts 5 minutes. The time that the animal spends without moving in the second trial is measured. This immobility time is decreased by antidepressants.
After some time, the mice give up the attempt to escape from the water and subside into immobility. The duration of the immobility is measured. An animal was considered to be immobile whenever it remained floating passively in the water in a slightly hunched but upright position, its nose above the water surface. […] The total immobility period during the 6-min test was recorded with the help of stopwatch.
The immobility period data obtained from tables 1, 2 and 3 is plotted against the dose administered in FIG. 1, FIG. 2 and FIG. 3 respectively, as shown in the drawing accompanying this specification.
Test Procedures: Porsolt Forced Swim test. Rectangular glass jar (25×12×25 cm^3) containing 15 cm of water maintained at 24±1° C.
The immobility period data obtained from Tables 4, 5, 6 and 7 is plotted against the dose administered in FIG. 4, FIG. 5, FIG. 6 and FIG. 7 respectively, as shown in the drawing accompanying this specification.

The subject of the next assay is Norepinephrine. Put plainly: Biological amine levels by HPLC-ECD after 45 min: norepinephrine. The class given is in vivo, mice. The note with it: fluoxetine 10 mg/kg. On the procedure: (§1) Test Substances: […] Animals: Male Laca mice. Test Procedures: Animals were sacrificed after 45 min of drug administration similar to the time period of behavioral observations. HPLC-ECD detector: Mobile phase—Phosphate buffer: […] • Column—ODS-3 C-18 column (250×4.6 mm I.D.; 5 μm particle size)

The next assay deals with Dopamine. Put plainly: Biological amine levels by HPLC-ECD after 45 min: dopamine. The note with it: fluoxetine 10 mg/kg. The class given is in vivo, mice. On the procedure:
as §1

The test system of the next assay is 5-hydroxytryptamine. In words: Biological amine levels by HPLC-ECD after 45 min: 5-hydroxytryptamine. The class given is in vivo, mice. Conditions: fluoxetine 10 mg/kg. On the procedure: as §1
Setting [1] is: Table 6, desipramine alone 5 mg/kg ip.
The mark [2] stands for this setting: Table 5, venlafaxine alone 2 mg/kg ip.
[3] abbreviates: Table 4, fluoxetine alone 5 mg/kg ip.
Where [4] appears, read: Table 7, tranylcypromine alone 5 mg/kg ip.

Turning to `CNCCCN1c2ccccc2CCc2ccccc21` [Desipramine], in the assay with Male Laca mice (setting [1]), the “% Decrease in immobility w.r.t vehicle group” value was 17.46% and the “Immobility period” value came to 211.5 ± 21.97 s.

As to `COc1ccc(C(CN(C)C)C2(O)CCCCC2)cc1` (centres unmarked) [Venlafaxine], in the assay on Male Laca mice (setting [2]), the “% Decrease in immobility w.r.t vehicle group” value was determined as 8.69% and the “Immobility period” value was 193.8 ± 13.26 s.

Turning to `CNCCC(Oc1ccc(C(F)(F)F)cc1)c1ccccc1` (centres unmarked) [Fluoxetine], the “% Decrease in immobility w.r.t saline treated group” value was found to be 74.30% in the assay on Male Laca mice (Table 1, fluoxetine 10 mg/kg); 70.51% in the assay with Male Laca mice (Table 2, fluoxetine 10 mg/kg); 70.51% in the assay with Male Laca mice (Table 3, fluoxetine 10 mg/kg). Further, the “Immobility period” value in the assay on Male Laca mice (Table 1, fluoxetine 10 mg/kg) amounted to 57 ± 17.45 s; in the assay with Male Laca mice (Table 2, fluoxetine 10 mg/kg), 57 ± 17.45 s; with Male Laca mice (Table 3, fluoxetine 10 mg/kg) it was 57 ± 17.45 s; in the assay with Male Laca mice (setting [3]), 172.75 ± 10.4 s. Also, the “% Decrease in immobility w.r.t saline group” value in the assay with Male Laca mice (setting [3]) amounted to 12.30%. Also, in the assay on Norepinephrine, the “Norepinephrine % increase w.r.t Control” value is 40.87%. For the same compound, the “Norepinephrine (ng/mg tissue)” value with Norepinephrine (n = 5) stood at 4.17 ± 0.23a ng/mg tissue. Also, the “Dopamine % increase w.r.t Control” value in the assay on Dopamine was determined as 12.15%. The “Dopamine (ng/mg tissue)” value in the assay with Dopamine (n = 5) is listed as 6.09 ± 0.54 ng/mg tissue. Besides, the “5-hydroxytryptamine % increase w.r.t Control” value in the assay on 5-hydroxytryptamine is recorded as 36.52%. Further, in the assay on 5-hydroxytryptamine (n = 5), the “5-hydroxytryptamine (ng/mg tissue)” value stood at 5.42 ± 0.13 ng/mg tissue.

Regarding `N[C@@H]1C[C@H]1c1ccccc1` (racemic) [Tranylcypromine], in the assay with Male Laca mice (setting [4]), the “% Decrease in immobility w.r.t vehicle group” value stood at 15.15% and the “Immobility period” value is 234 ± 20.41 s.
